Reference: ChEMBL document CHEMBL3046750, “Synthesis, characterization and antimicrobial activity of novel ethyl 1-(N-substituted)-5-phenyl-1H-pyrazole-4-carboxylate derivatives” (2012)
Converted amounts (≈) assume the structure as drawn. The source made the active and inactive calls. The rule behind the calls is not given here.

Key:
Staphylococcus aureus [1] = assay: Antibacterial activity against Staphylococcus aureus at 1.6125 ug/ml after 16 hr by serial dilution method; assay type: functional, organism-based
Pseudomonas aeruginosa [2] = assay: Antibacterial activity against Pseudomonas aeruginosa after 16 hr by serial dilution method; assay type: functional
Bacillus subtilis [3] = assay: Antibacterial activity against Bacillus subtilis after 16 hr by serial dilution method; assay type: functional
Escherichia coli [4] = assay: Antibacterial activity against Escherichia coli at 1.6125 ug/ml after 16 hr by serial dilution method; assay type: functional, organism-based
Staphylococcus aureus [5] = assay: Antibacterial activity against Staphylococcus aureus after 16 hr by serial dilution method; assay type: functional
Bacillus subtilis [6] = assay: Antibacterial activity against Bacillus subtilis at 1.6125 ug/ml after 16 hr by serial dilution method; assay type: functional, organism-based
Escherichia coli [7] = assay: Antibacterial activity against Escherichia coli after 16 hr by serial dilution method; assay type: functional
Pseudomonas aeruginosa [8] = assay: Antibacterial activity against Pseudomonas aeruginosa at 1.6125 ug/ml after 16 hr by serial dilution method; assay type: functional, organism-based

Row | Structure (SMILES) | Activity (Staphylococcus aureus [1]) | MIC (Pseudomonas aeruginosa [2]) | MIC (Bacillus subtilis [3]) | Activity (Escherichia coli [4]) | MIC (Staphylococcus aureus [5]) | Activity (Bacillus subtilis [6]) | MIC (Escherichia coli [7]) | Activity (Pseudomonas aeruginosa [8])
1 | CCOC(=O)c1cnn(-c2ccc(C(C)(C)C)cc2)c1-c1ccccc1 | inactive | 12.5 µg/mL (≈ 35.9 µM) | 12.5 µg/mL (≈ 35.9 µM) | inactive | – | – | – | –
2 | CCOC(=O)c1cnn(-c2ccc(C(=O)O)cc2)c1-c1ccccc1 | – | 25 µg/mL (≈ 74.3 µM) | – | inactive | 50 µg/mL (≈ 149 µM) | inactive | – | –
3 | CCOC(=O)c1cnn(C2CCNCC2)c1-c1ccccc1 | – | 1.61 µg/mL (≈ 5.39 µM) | 3.12 µg/mL (≈ 10.4 µM) | – | 3.12 µg/mL (≈ 10.4 µM) | – | 1.61 µg/mL (≈ 5.39 µM) | –
4 | CCOC(=O)c1cnn(-c2ccc3ccccc3n2)c1-c1ccccc1 | – | 3.12 µg/mL (≈ 9.1 µM) | 3.12 µg/mL (≈ 9.1 µM) | – | 3.12 µg/mL (≈ 9.1 µM) | – | 6.25 µg/mL (≈ 18.2 µM) | –
5 | CO/N=C(\C(=O)N[C@@H]1C(=O)N2C(C(=O)O)=C(CSc3nc(=O)c(O)nn3C)CS[C@H]12)c1csc(N)n1 [CEFTRIAXONE] | – | 1.61 µg/mL (≈ 2.91 µM) | 1.61 µg/mL (≈ 2.91 µM) | – | 3.12 µg/mL (≈ 5.63 µM) | – | 1.61 µg/mL (≈ 2.91 µM) | –
6 | CCOC(=O)c1cnn(-c2ccc(C(F)(F)F)cc2)c1-c1ccccc1 | – | 1.61 µg/mL (≈ 4.48 µM) | 1.61 µg/mL (≈ 4.48 µM) | – | 3.12 µg/mL (≈ 8.67 µM) | – | 1.61 µg/mL (≈ 4.48 µM) | –
7 | CCOC(=O)c1cnn(C2CCCCC2)c1-c1ccccc1 | – | 6.25 µg/mL (≈ 20.9 µM) | 6.25 µg/mL (≈ 20.9 µM) | – | 6.25 µg/mL (≈ 20.9 µM) | – | 12.5 µg/mL (≈ 41.9 µM) | –
8 | CCOC(=O)c1cnn(C)c1-c1ccccc1 | inactive | – | – | inactive | – | inactive | – | inactive
9 | CCOC(=O)c1cnn(-c2ccc(Cl)cc2Cl)c1-c1ccccc1 | – | 3.25 µg/mL (≈ 9 µM) | 1.61 µg/mL (≈ 4.47 µM) | – | 1.61 µg/mL (≈ 4.47 µM) | – | 1.61 µg/mL (≈ 4.47 µM) | –
10 | CCOC(=O)c1cnn(-c2ccc(C)cc2)c1-c1ccccc1 | inactive | – | – | inactive | – | inactive | – | inactive
11 | CCOC(=O)c1cnn(-c2ccc(F)cc2)c1-c1ccccc1 | – | 1.61 µg/mL (≈ 5.2 µM) | 3.12 µg/mL (≈ 10.1 µM) | – | 6.25 µg/mL (≈ 20.1 µM) | – | 1.61 µg/mL (≈ 5.2 µM) | –
12 | CCOC(=O)c1cnn(C(C)(C)C)c1-c1ccccc1 | inactive | – | – | inactive | – | inactive | – | inactive
13 | CCOC(=O)c1cnn(-c2ccccc2Br)c1-c1ccccc1 | – | 1.61 µg/mL (≈ 4.34 µM) | 1.61 µg/mL (≈ 4.34 µM) | – | 3.12 µg/mL (≈ 8.42 µM) | – | 1.61 µg/mL (≈ 4.34 µM) | –
